This experiment relates to KB. The experiment is described as follows: Cytotoxicity against human KB cells after 72 hrs by neutral red based colorimetry assay. The format is functional, cell-based.
For orientation: IC50 means the concentration that inhibits the measured activity by half. Higher therefore signals weaker potency in that assay. Take `C[C@@H]1OC(=O)[C@]23CC[C@H]4[C@@H](CC=C5C[C@@H](N)CC[C@@]54C)[C@@H]2CC[C@H]13`: the half-maximal inhibitory concentration (IC50) was found to be 21.2 µM.
Then `CN[C@H]1CC[C@@]2(C)C(=C[C@@H](O)[C@H]3[C@@H]4CC[C@@H]5[C@H](C)OC(=O)[C@@]54CC[C@@H]32)C1`, with above 50 µM.
`CN[C@@H]1CC[C@@]2(C)C(=CC[C@H]3[C@@H]4CC[C@@H]5[C@H](C)OC(=O)[C@@]54CC[C@@H]32)C1` registered an IC50 of 21 µM.
In turn, `CC(=O)N[C@@H]1CC[C@@]2(C)C(=CC[C@H]3[C@@H]4CC[C@@H]5[C@H](C)OC(=O)[C@@]54CC[C@@H]32)C1` had a concentration for half-maximal inhibition (IC50) above 50 µM.
As for `C[C@@H]1OC(=O)[C@]23CC[C@H]4[C@@H](CC=C5C[C@H](N)CC[C@@]54C)[C@@H]2CC[C@H]13` [GITINGENSINE], half-maximal inhibition (IC50) was put at 21 µM.
On to `C[C@@H]1OC(=O)[C@]23CC[C@H]4[C@@H](C(=O)C=C5C=CCC[C@@]54C)[C@@H]2CC[C@H]13` [KIBALAURIFENONE], for which the IC50 was 21 µM.
`CC(=O)N(C)[C@H]1C=C2C=C[C@H]3[C@@H]4CC[C@@H]5[C@H](C)OC(=O)[C@@]54CC[C@@H]3[C@@]2(C)CC1` [KIBALAURIFOLINE]: the half-maximal inhibitory concentration (IC50) is 21 µM.
The molecule `CN[C@H]1CC[C@@]2(C)C(=CC[C@H]3[C@@H]4CC[C@@H]5[C@H](C)OC(=O)[C@@]54CC[C@@H]32)C1` [PARAVALLARINE] registered an IC50 of 12.8 µM.

The values are drawn from ChEMBL document CHEMBL1800015, “Cytotoxic steroidal alkaloids from Kibatalia laurifolia” (J Nat Prod, 2011).
